Values of other authors in patent EP0529484A1, “Antitussive and expectorant composition” (ND NEW DRUG DEVELOPMENT INSTITUTE INC., priority 1991, dated 1993).

Experiments:
[1] = tested on: rat
[2] = tested on: mouse

Q: With `C[N+]1(CCF)[C@@H]2CC[C@H]1C[C@@H](OC(=O)C(O)(c1ccccc1)c1ccccc1)C2` (stereo partly drawn) [flutropium bromide, 8(r)-8-(2-fluoroethyl)-3α-hydroxy-1αH,5αH-tropanium bromide, benzilate hydrate] as the compound, how does the “LD₅₀ through oral administration” value [1] read?
A: Its value is 2,900 mg/kg.

Q: And the “LD₅₀ through oral administration” value [2]?
A: Its value is 930 mg/kg.
